Data on seven compounds can be found in patent EP4678638A1, “NEW E3 UBIQUITIN LIGASE LIGAND, PROTEIN DEGRADATION AGENT AND USE THEREOF” (priority 2023, dated 2024).

This test concerns H1975. Put plainly: CCK-8 proliferation, NCI-H1975 (H1975). It counts as cell-based, Human. The conditions noted are these: Homo sapiens, NCI-H1975; CCK-8; 96 hours; read-out: Inhibitory activity (IC50) on tumor cell proliferation, H1975. The method, then: The tumor cells used herein were cultured in a cell culture medium listed in table A1 at 37°C in an incubator with 5% CO2. Prior to experimentation, all cell lines used were correctly identified by STR profiling, and tested negative for mycoplasma contamination using a mycoplasma detection kit through routine screenings. Table A1. Tumor cells and cell culture medium used in the present disclosure
IC50 values of the compounds of the present disclosure (including the compounds in Table 1, and compounds of examples) were measured using the Meilun Cell Counting Kit-8 kit from Dalian Meilun Biotech Co., Ltd. Assay details are as follows: tumor cells were seeded in a 96-well plate at a density listed in Table A2. After 24h, 100 µL of the inoculated cells were treated with 0.5µL of the compounds of the present disclosure (including the compounds in Tables 1 and 2, and compounds of examples) at 10 different successively decreasing concentrations (starting at the highest concentration of 10µM; 5-fold serial dilutions). After the cells were treated with the compounds of the present disclosure for a period of time, the cell viability detection reagent was added to the culture medium for cell viability assessment according to the instructions provided with the CCK-8 kit. […] The growth inhibition of the compounds of the present disclosure on cells was plotted by Prism Graphpad software, and the IC50 values of the compounds of the present disclosure were calculated therefrom. […] Seeding protocol and treatment time for tumor cells

On to `CN(Cc1cc(N2CCC(=O)NC2=O)ncc1F)C1CCN(c2ccc(-c3cc(F)c4c(c3)C(=O)N(C(C(=O)Nc3nccs3)c3ncn5c3CCC5)C4)cc2)CC1` (stereo not shown) [GT-07382, 2-(6,7-dihydro-5H-pyrrolo[1,2-c]imidazol-1-yl)-2-(6-(4-(4-(((2-(2,4-dioxotetrahydropyrimidin-1(2H)-yl)-5-fluoropyridin-4-yl)methyl)(methyl)amino)piperidin-1-yl)phenyl)-4-fluoro-1-oxoisoindolin-2-yl)-N-(thiazol-2-yl)acetamide], for which the IC50 was in the range of 10 to 50 nM.
As for `CN(Cc1cncc(N2CCC(=O)NC2=O)c1)C1CCN(c2ccc(-c3cc(F)c4c(c3)C(=O)N(C(C(=O)Nc3nccs3)c3ncn5c3CCC5)C4)cc2)CC1` (stereo not shown) [GT-07384, 2-(6,7-dihydro-5H-pyrrolo[1,2-c]imidazol-1-yl)-2-(6-(4-(4-(((5-(2,4-dioxotetrahydropyrimidin-1(2H)-yl)pyridin-3-yl)methyl)(methyl)amino)piperidin-1-yl)phenyl)-4-fluoro-1-oxoisoindolin-2-yl)-N-(thiazol-2-yl)acetamide], the figure is 1 to 10 nM; as for `CN(Cc1ccc(C2CCC(=O)NC2=O)cn1)C1CCN(c2ccc(-c3cc(F)c4c(c3)C(=O)N(C(C(=O)Nc3nccs3)c3ncn5c3CCC5)C4)cc2)CC1` (stereo not shown) [GT-07385, 2-(6,7-dihydro-5H-pyrrolo[1,2-c]imidazol-1-yl)-2-(6-(4-(4-(((5-(2,6-dioxopiperidin-3-yl)pyridin-2-yl)methyl)(methyl)amino)piperidin-1-yl)phenyl)-4-fluoro-1-oxoisoindolin-2-yl)-N-(thiazol-2-yl)acetamide], 1 to 10 nM; as for `O=C1CCN(c2cc(CN3C[C@H]4C[C@@H]3CN4c3ccc(-c4cc(F)c5c(c4)C(=O)N(C(C(=O)Nc4nccs4)c4ncn6c4CCC6)C5)cc3)ccn2)C(=O)N1` (stereo partly drawn) [GT-07387, 2-(6,7-dihydro-5H-pyrrolo[1,2-c]imidazol-1-yl)-2-(6-(4-((1R,4R)-5-((2-(2,4-dioxotetrahydropyrimidin-1(2H)-yl)pyridin-4-yl)methyl)-2,5-diazabicyclo[2.2.1]heptan-2-yl)phenyl)-4-fluoro-1-oxoisoindolin-2-yl)-N-(thiazol-2-yl)acetamide], 1 to 10 nM.
For the compound `O=C1CCC(c2cc(CN3CCN(c4ccc(-c5cc(F)c6c(c5)C(=O)N(C(C(=O)Nc5nccs5)c5ncn7c5CCC7)C6)cc4)CC3)ccn2)C(=O)N1` (stereo not shown) [GT-07392, 2-(6,7-dihydro-5H-pyrrolo[1,2-c]imidazol-1-yl)-2-(6-(4-(4-((2-(2,6-dioxopiperidin-3-yl)pyridin-4-yl)methyl)piperazin-1-yl)phenyl)-4-fluoro-1-oxoisoindolin-2-yl)-N-(thiazol-2-yl)acetamide], the IC50 fell in the range of 1 to 10 nM.
As for `O=C1CCC(c2cncc(CN3CCN(c4ccc(-c5cc(F)c6c(c5)C(=O)N(C(C(=O)Nc5nccs5)c5ncn7c5CCC7)C6)cc4)CC3)c2)C(=O)N1` (stereo not shown) [GT-07472, 2-(6,7-dihydro-5H-pyrrolo[1,2-c]imidazol-1-yl)-2-(6-(4-(4-((5-(2,6-dioxopiperidin-3-yl)pyridin-3-yl)methyl)piperazin-1-yl)phenyl)-4-fluoro-1-oxoisoindolin-2-yl)-N-(thiazol-2-yl)acetamide], the figure is 1 to 10 nM; as for `O=C1CCC(Nc2ncccc2CN2CCN(c3ccc(-c4cc(F)c5c(c4)C(=O)N(C(C(=O)Nc4nccs4)c4ncn6c4CCC6)C5)cc3)CC2)C(=O)N1` (stereo not shown) [GT-07489, 2-(6,7-dihydro-5H-pyrrolo[1,2-c]imidazol-1-yl)-2-(6-(4-(4-((2-((2,6-dioxopiperidin-3-yl)amino)pyridin-3-yl)methyl)piperazin-1-yl)phenyl)-4-fluoro-1-oxoisoindolin-2-yl)-N-(thiazol-2-yl)acetamide], 10 to 50 nM.
